Source: patent publication US20230382926A1, “COMPOUNDS AND USES THEREOF” (The University of The West Indies, priority 2022, published 2023)

Columns and labels:
Experiment in all cases: Rescue concentration, modified checkerboard MIC adjuvant assay
Format in all cases: cell-based
[1] = tested on: Streptococcus pneumoniae ATCC 49619; settings: S. pneumoniae ATCC 49619
Experimental: (§1) Reference microorganisms as well as clinical strains used to evaluate the antimicrobial adjuvant properties of SP-6azaBIM 125 and SP-6azaBIM 136 are listed in Table 3. Clinical strains of bacteria were kindly provided by the Faculty of Medical Sciences, UWI, St. Augustine, Trinidad. All bacterial cultures were cryopreserved in 30% glycerol/Brain Heart Infusion (BHI) at −80° C. Cultures were revived on BHI agar (Oxoid Ltd, England) and maintained at 4° C. until needed.
(§2) Prior to each experiment, cultures were streaked onto clean BHI agar plates and incubated at 35° C. for 24 hours. Colonies of the respective cultures were selected and inoculated in phosphate buffer saline (pH 7.5) to a 0.5 McFarland turbidity standard (equivalent to 10^8 CFU mL^−1). For inhibitory studies the bacterial suspensions were diluted 1:100 in cation-adjusted Mueller Hinton Broth (ca-MHB) (Oxoid Ltd, England). Fastidious bacteria including Streptococcus pneumoniae, Haemophilus infuenzae and Clostridium difficile were maintained on BHI agar with 5% defibrinated sheep blood and diluted in ca-MHB with 5% defibrinated sheep blood.
(§3) Antibiotic powders used in this study were purchased from Sigma Aldrich Ltd. (WI, USA). Antibiotic stock solutions were made at 50 mg mL^−1 according to Andrews (2001) and working solutions were prepared 24 h before use and stored at 4° C.
(§4) HCl salts of the of the SP-azaBIM test compounds were prepared prior to testing and stored at 4° C. Working preparations of each compound were made to 1 mg/mL in sterile deionised water.
(§5) The antibiotic adjuvant activity of the SPazaBIMs were evaluated in combination with representative antibiotics (representing 13 antibiotic classes) against the 19 pathogens strains listed in Table 3. To assess the adjuvant properties of the SP-azaBIM molecules, a modified checkerboard minimum inhibitory concentration assay was used. A fixed concentration of the respective antibiotic (susceptible breakpoint concentration) was mixed with a twofold dilution series of the test SP-azaBIM (FIG. 1). This was to determine the concentration of SP-azaBIM needed potentiate the antibiotic at a clinically susceptible breakpoint concentration. Antibiotic susceptible breakpoint concentrations for the respective bacteria were determined using Clinical Laboratory Standards Institute (CLSI) criteria M100 ED31.
(§6) In this study, only those antibiotics to which the bacterial was classed as resistant were included in the adjuvant assays. In this assay we recorded the rescue concentration of the SP-BIM for a respective antibiotic. The rescue concentration was defined as the concentration of the adjuvant that reduces the minimum inhibitory concentration (MIC) of an antibiotic to the susceptibility breakpoint.
(§7) Immediately prior to testing, the respective antibiotic and SP-azaBIM was dissolved in sterile deionised water at 20× the required test concentration. Each microtiter well was then inoculated with 180 μl of bacterial inoculum of 10^6 CFU/ml in ca-MHB, and 10 μl each if the antibiotic and SP-azaBIM was added to the plates. These plates were then incubated at 35° C. for 24 h under aerobic conditions. A similar method was followed for the fastidious pathogens except that they were cultured in ca-MHB with 5% sheep blood and 5% CO2.
(§8) Bacterial growth was visually inspected after the incubation period and the rescue concentration of the test SP-azaBIM was determined as the lowest concentration of the compound needed to reduce bacterial growth by 99.99% at the susceptible breakpoint concentration of the antibiotic. For example, CLSI states that Pseudomonas aeruginosa is susceptible to the Imipenem if the MIC is ≤2 μg mL^−1. If the bacteria can tolerate this concentration in vitro, then the bacteria has an intermediate or absolute resistance toward that antibiotic. […]

[2] = tested on: Escherichia coli ATCC 35150; settings: E. coli ATCC 35150
Experimental: as §1, §2, §3, §4, §5, §6, §7, §8

[3] = tested on: Staphylococcus aureus ATCC BAA-2312; settings: S. aureus ATCC BAA-2312
Experimental: as §1, §2, §3, §4, §5, §6, §7, §8

[4] = tested on: Pseudomonas aeruginosa MDR 5805; settings: P. aeruginosa MDR 5805
Experimental: as §1, §2, §3, §4, §5, §6, §7, §8

[5] = tested on: Acinetobacter baumannii clinical isolate 9978; settings: A. baumannii clinical isolate 9978
Experimental: as §1, §2, §3, §4, §5, §6, §7, §8

[6] = tested on: Stenotrophomonas maltophilia MDR 7785; settings: S. maltophilia MDR 7785
Experimental: as §1, §2, §3, §4, §5, §6, §7, §8

[7] = tested on: Enterobacter cloacae ATCC BAA-1143; settings: E. cloacae ATCC BAA-1143
Experimental: as §1, §2, §3, §4, §5, §6, §7, §8

[8] = tested on: Klebsiella pneumoniae ATCC BAA-2814; settings: K. pneumoniae ATCC BAA-2814
Experimental: as §1, §2, §3, §4, §5, §6, §7, §8

[9] = Col at susceptible breakpoint 8 μg mL^−1
[10] = Dox at susceptible breakpoint 4 μg mL^−1
[11] = Imi at susceptible breakpoint 1 μg mL^−1
[12] = Gen at susceptible breakpoint 4 μg mL^−1
[13] = Amox at susceptible breakpoint 8 μg mL^−1
[14] = Col at susceptible breakpoint 2 μg mL^−1
[15] = Imi at susceptible breakpoint 2 μg mL^−1
[16] = Mero at susceptible breakpoint 2 μg mL^−1
[17] = Pol B at susceptible breakpoint 2 μg mL^−1
[18] = Cef at susceptible breakpoint 8 μg mL^−1
[19] = Ceph at susceptible breakpoint 8 μg mL^−1
[20] = Chl at susceptible breakpoint 8 μg mL^−1
[21] = Amp at susceptible breakpoint 8 μg mL^−1
[22] = Azi at susceptible breakpoint 16 μg mL^−1
[23] = Tet at susceptible breakpoint 4 μg mL^−1

Brc1ccc(C(c2c[nH]c3cnccc23)c2c[nH]c3cnccc23)cc1 [SP-6azaBIM 125, 3,3′-((4-bromophenyl)methylene)bis(1H-pyrrolo[2,3-c]pyridine)]
Rescue concentration, Amox (2) ([1]; Amox at susceptible breakpoint 2 μg mL^−1): >128 µg/mL | Rescue concentration, Ery (0.25) ([1]; Ery at susceptible breakpoint 0.25 μg mL^−1): >128 µg/mL | Rescue concentration, Imi (0.12) ([1]; Imi at susceptible breakpoint 0.12 μg mL^−1): >128 µg/mL | Rescue concentration, Cip (0.25) ([2]; Cip at susceptible breakpoint 0.25 μg mL^−1): 8 µg/mL | Rescue concentration, Col (8) [2, 9]: 2 µg/mL | Rescue concentration, Dox (4) [2, 10]: 32 µg/mL | Rescue concentration, Imi (1) [2, 11]: 4 µg/mL | Rescue concentration, Azi (2) ([3]; Azi at susceptible breakpoint 2 μg mL^−1): >128 µg/mL | Rescue concentration, Gen (4) [3, 12]: 64 µg/mL | Rescue concentration, Pen (0.12) ([3]; Pen at susceptible breakpoint 0.12 μg mL^−1): >128 µg/mL | Rescue concentration, Tri (8) ([3]; Tri at susceptible breakpoint 8 μg mL^−1): >128 µg/mL | Rescue concentration, Van (2) ([3]; Van at susceptible breakpoint 2 μg mL^−1): >128 µg/mL | Rescue concentration, Amox (8) [4, 13]: 128 µg/mL | Rescue concentration, Col (2) [4, 14]: >128 µg/mL | Rescue concentration, Gen (4) [4, 12]: 16 µg/mL | Rescue concentration, Imi (2) [4, 15]: >128 µg/mL | Rescue concentration, Mero (2) [4, 16]: >128 µg/mL | Rescue concentration, Pol B (2) [4, 17]: >128 µg/mL | Rescue concentration, Amox (8) [5, 13]: 16 µg/mL | Rescue concentration, Cef (8) [5, 18]: 2 µg/mL | Rescue concentration, Col (2) [5, 14]: 4 µg/mL | Rescue concentration, Gen (4) [5, 12]: 2 µg/mL | Rescue concentration, Imi (2) [5, 15]: 4 µg/mL | Rescue concentration, Mero (2) [5, 16]: 8 µg/mL | Rescue concentration, Pol B (2) [5, 17]: 16 µg/mL | Rescue concentration, Cef (8) [6, 18]: 8 µg/mL | Rescue concentration, Ceph (8) [6, 19]: 8 µg/mL | Rescue concentration, Chl (8) [6, 20]: 4 µg/mL | Rescue concentration, Cip (2) ([6]; Cip at susceptible breakpoint 2 μg mL^−1): 2 µg/mL | Rescue concentration, Gen (4) [6, 12]: 8 µg/mL | Rescue concentration, Imi (2) [6, 15]: 16 µg/mL | Rescue concentration, Mero (2) [6, 16]: 4 µg/mL | Rescue concentration, Tri (2) ([6]; Tri at susceptible breakpoint 2 μg mL^−1): 64 µg/mL | Rescue concentration, Amp (8) [7, 21]: 32 µg/mL | Rescue concentration, Azi (16) [7, 22]: >128 µg/mL | Rescue concentration, Ceph (8) [7, 19]: >128 µg/mL | Rescue concentration, Chl (8) [7, 20]: >128 µg/mL | Rescue concentration, Col (8) [7, 9]: >128 µg/mL | Rescue concentration, Dox (4) [7, 10]: >128 µg/mL | Rescue concentration, Gen (4) [7, 12]: >128 µg/mL | Rescue concentration, Imi (1) [7, 11]: >128 µg/mL | Rescue concentration, Tet (4) [7, 23]: >128 µg/mL | Rescue concentration, Amox (8) [8, 13]: 4 µg/mL | Rescue concentration, Amp (8) [8, 21]: 16 µg/mL | Rescue concentration, Aze (4) ([8]; Aze at susceptible breakpoint 4 μg mL^−1): 4 µg/mL | Rescue concentration, Azi (16) [8, 22]: 32 µg/mL | Rescue concentration, Cef (16) ([8]; Cef at susceptible breakpoint 16 μg mL^−1): 16 µg/mL | Rescue concentration, Ceph (8) [8, 19]: 32 µg/mL | Rescue concentration, Chl (8) [8, 20]: 32 µg/mL | Rescue concentration, Col (8) [8, 9]: 4 µg/mL | Rescue concentration, Dox (4) [8, 10]: 8 µg/mL | Rescue concentration, Gen (4) [8, 12]: 16 µg/mL | Rescue concentration, Imi (1) [8, 11]: 2 µg/mL | Rescue concentration, Tet (4) [8, 23]: 32 µg/mL
